# Data reported in publication PMC10221074, “Functional Profiling of the A-Family of Venom Peptides from the Wolf Spider Lycosa shansia” (Toxins, 2023).
# What was measured:
# [1] = tested on: B/Malaysia/2506/2004 (B-Mal); format: cell-based, influenza virus
# [2] = tested on: A/Hamburg/05/2009 (H1N1); format: cell-based, influenza virus
# [3] = tested on: A/Hessen/1/2003 (H3N2); format: cell-based, influenza virus
# [4] = tested on: G. mellonella larvae; experiment: Insecticidal activity by injection into larvae; format: in vivo, Galleria mellonella; settings: 50 ng peptide injected, 3 cohorts of 10 larvae, survival monitored for 5 days
# Procedure: Insecticidal activity was determined using fourth and fifth instar G. mellonella larvae (L4/L5) obtained from Fauna Topics Zoobedarf Zucht und Handels GmbH (Marbach am Neckar, Germany). Because spider venom is injected via chelicerae, we opted for an injection-based assay to reflect the natural process of envenomation as described earlier. The peptides were dissolved in a 1:1 mixture of DMSO and water to a final concentration of 10 mmol/L. We injected 50 ng of each peptide into the pseudopodium using Omnican-F, 0.30 × 12 mm/G 30 × 1/2”, a 1 mL syringe adjusted to a WPI manual microsyringe injector setup. Injections with water, DMSO/water (1:1) and ethanol (90%) were used as controls, alongside untreated specimens. Insecticidal activity screenings were performed in cohorts of 10 larvae with 3 replicates (30 specimens per treatment or control). […] Survival was monitored every 24 h for 5 days. Mortality was calculated based on the ratio of dead to injected specimens.
# [5] = tested on: panel of seven bacterial strains; experiment: Antibacterial growth assay (OD600), statements on the whole panel; format: cell-based; settings: growth after 48 h
# [6] = tested on: Pseudomonas aeruginosa DSM 1117; experiment: Antibacterial growth assay (OD600); settings: OD600, medium = 100, MH II broth, 37 °C, peptide 200 µM mixed 50 µL + 50 µL with bacteria, Figure 7: 48 h; for Bacterial growth relative to medium, P. aeruginosa (1117), replicate 1: replicate column 1; for Bacterial growth relative to medium, P. aeruginosa (1117), replicate 2: replicate column 2; for Bacterial growth relative to medium, P. aeruginosa (1117), replicate 3: replicate column 3
# Procedure: (§1) Cryo-conserved cultures of selected bacterial strains (Table 4) were transferred to Tryptic Soy Agar (TSA) plates (Carl Roth) with a sterile inoculation loop, sealed with Parafilm (BEMIS, Neenah, WI, USA), and incubated for 1–2 days at 37 °C depending on growth. Single colonies were picked and transferred into 2–3 mL of the Mueller–Hinton II (MH II) broth (BD, Heidelberg, Germany). The bacteria were cultivated overnight, subcultured on fresh medium and grown for 3–4 h before testing at 37 °C, with shaking at 180 rpm. We measured the optical density at 600 nm (OD600) of 1 mL of the bacterial suspensions in polystyrene cuvettes (SARSTED, Nümbrecht, Germany) using an Ultrospec 10 spectrophotometer (Biochrome, Cambridge, UK). We then diluted them with the MH II medium to the preferred OD600 (Table 2). The peptides were dissolved in DMSO to generate 10 mmol/L stocks and diluted with the MH II medium to 200 µM before the assay. We used 10 µg/mL (~40 µg/mL for S. epidermidis) gentamicin and colistin (Sigma-Aldrich, Taufkirchen, Germany), DMSO and the medium only as controls. The bacteria were transferred to 96-multiwell plates with a final volume of 100 µL per well (50 µL bacterial suspension, and 50 µL test peptide). The OD600 was measured at 0, 24 and 48 h using a BioTek Eon microplate reader followed by analysis with Gen5 v2.09.
# [7] = tested on: Pseudomonas aeruginosa DSM 50071; experiment: Antibacterial growth assay (OD600); settings: OD600, medium = 100, MH II broth, 37 °C, peptide 200 µM mixed 50 µL + 50 µL with bacteria, Figure 7: 48 h; for Bacterial growth relative to medium, P. aeruginosa (50071), replicate 1: replicate column 1; for Bacterial growth relative to medium, P. aeruginosa (50071), replicate 2: replicate column 2; for Bacterial growth relative to medium, P. aeruginosa (50071), replicate 3: replicate column 3
# Procedure: as §1
# [8] = tested on: Micrococcus luteus DSM 20030; experiment: Antibacterial growth assay (OD600); settings: for Antibacterial activity (in words): M. luteus DSM 20030, growth after 48 h; for Bacterial growth relative to medium, M. luteus, replicate 1 / Bacterial growth relative to medium, M. luteus, replicate 2 / Bacterial growth relative to medium, M. luteus, replicate 3: OD600, medium = 100, MH II broth, 37 °C, peptide 200 µM mixed 50 µL + 50 µL with bacteria, Figure 7: 48 h; for Bacterial growth relative to medium, M. luteus, replicate 1: replicate column 1; for Bacterial growth relative to medium, M. luteus, replicate 2: replicate column 2; for Bacterial growth relative to medium, M. luteus, replicate 3: replicate column 3
# [9] = tested on: Staphylococcus aureus DSM 2569; experiment: Antibacterial growth assay (OD600); settings: for Bacterial growth relative to medium, S. aureus, replicate 1 / Bacterial growth relative to medium, S. aureus, replicate 2 / Bacterial growth relative to medium, S. aureus, replicate 3: OD600, medium = 100, MH II broth, 37 °C, peptide 200 µM mixed 50 µL + 50 µL with bacteria, Figure 7: 48 h; for Bacterial growth relative to medium, S. aureus, replicate 1: replicate column 1; for Bacterial growth relative to medium, S. aureus, replicate 2: replicate column 2; for Bacterial growth relative to medium, S. aureus, replicate 3: replicate column 3; for Antibacterial activity (in words): S. aureus DSM 2569, growth after 48 h
# Procedure: as §1
# [10] = tested on: Escherichia coli BL21(DE3); experiment: Antibacterial growth assay (OD600); settings: for Bacterial growth relative to medium, E. coli, replicate 1 / Bacterial growth relative to medium, E. coli, replicate 2 / Bacterial growth relative to medium, E. coli, replicate 3: OD600, medium = 100, MH II broth, 37 °C, peptide 200 µM mixed 50 µL + 50 µL with bacteria, Figure 7: 48 h; for Bacterial growth relative to medium, E. coli, replicate 1: replicate column 1; for Bacterial growth relative to medium, E. coli, replicate 2: replicate column 2; for Bacterial growth relative to medium, E. coli, replicate 3: replicate column 3
# [11] = tested on: Listeria monocytogenes DSM 20600; experiment: Antibacterial growth assay (OD600); settings: for Bacterial growth relative to medium, L. monocytogenes, replicate 1 / Bacterial growth relative to medium, L. monocytogenes, replicate 2 / Bacterial growth relative to medium, L. monocytogenes, replicate 3: OD600, medium = 100, MH II broth, 37 °C, peptide 200 µM mixed 50 µL + 50 µL with bacteria, Figure 7: 48 h; for Bacterial growth relative to medium, L. monocytogenes, replicate 1: replicate column 1; for Bacterial growth relative to medium, L. monocytogenes, replicate 2: replicate column 2; for Bacterial growth relative to medium, L. monocytogenes, replicate 3: replicate column 3
# [12] = tested on: Staphylococcus epidermidis DSM 28319; experiment: Antibacterial growth assay (OD600); settings: for Bacterial growth relative to medium, S. epidermidis, replicate 1 / Bacterial growth relative to medium, S. epidermidis, replicate 2 / Bacterial growth relative to medium, S. epidermidis, replicate 3: OD600, medium = 100, MH II broth, 37 °C, peptide 200 µM mixed 50 µL + 50 µL with bacteria, Figure 7: 48 h; for Bacterial growth relative to medium, S. epidermidis, replicate 1: replicate column 1; for Bacterial growth relative to medium, S. epidermidis, replicate 2: replicate column 2; for Bacterial growth relative to medium, S. epidermidis, replicate 3: replicate column 3; for Antibacterial activity (in words): S. epidermidis DSM 28319, growth after 48 h
sequence,measurement,setting,value
SLLGLLDVVKNTVGQT [LS-AMP-A10],"Viability of infected cells relative to aprotinin, Replicate 1",[1],0.07328
same,"Viability of infected cells relative to aprotinin, Replicate 2",[1],0.09773
same,"Viability of infected cells relative to aprotinin, Replicate 3",[1],0.07183
same,"Viability of infected cells relative to aprotinin, Replicate 1",[2],0.0352
same,"Viability of infected cells relative to aprotinin, Replicate 2",[2],0.02417
same,"Viability of infected cells relative to aprotinin, Replicate 3",[2],0.03391
same,"Viability of infected cells relative to aprotinin, Replicate 1",[3],0.05441
same,"Viability of infected cells relative to aprotinin, Replicate 2",[3],0.1761
same,"Viability of infected cells relative to aprotinin, Replicate 3",[3],0.1729
same,"Viability of infected cells relative to aprotinin, Replicate 4","[3]; […], replicate 4 (additional internal control)",0.1942
same,Insecticidal effect on larvae (in words),[4],Individual dead insects
same,Antibacterial activity over the panel (in words),[5],inhibited the growth of most of the bacteria except two
same,"Bacterial growth relative to medium, P. aeruginosa (1117), replicate 1",[6],65.0772
same,"Bacterial growth relative to medium, P. aeruginosa (1117), replicate 2",[6],90.1148
same,"Bacterial growth relative to medium, P. aeruginosa (1117), replicate 3",[6],64.0892
same,"Bacterial growth relative to medium, P. aeruginosa (50071), replicate 1",[7],97.2952
same,"Bacterial growth relative to medium, P. aeruginosa (50071), replicate 2",[7],110.352
same,"Bacterial growth relative to medium, P. aeruginosa (50071), replicate 3",[7],83.9978
same,Antibacterial activity (in words),[8],no activity
same,"Bacterial growth relative to medium, M. luteus, replicate 1",[8],61.1915
same,"Bacterial growth relative to medium, M. luteus, replicate 2",[8],88.7389
same,"Bacterial growth relative to medium, M. luteus, replicate 3",[8],35.3419
same,"Bacterial growth relative to medium, S. aureus, replicate 1",[9],64.1206
same,"Bacterial growth relative to medium, S. aureus, replicate 2",[9],64.9771
same,"Bacterial growth relative to medium, S. aureus, replicate 3",[9],91.1709
same,"Bacterial growth relative to medium, E. coli, replicate 1",[10],81.6291
same,"Bacterial growth relative to medium, E. coli, replicate 2",[10],64.3105
same,"Bacterial growth relative to medium, E. coli, replicate 3",[10],57.0069
same,"Bacterial growth relative to medium, L. monocytogenes, replicate 1",[11],109.148
same,"Bacterial growth relative to medium, L. monocytogenes, replicate 2",[11],78.161
same,"Bacterial growth relative to medium, L. monocytogenes, replicate 3",[11],28.6946
same,"Bacterial growth relative to medium, S. epidermidis, replicate 1",[12],79.4001
same,"Bacterial growth relative to medium, S. epidermidis, replicate 2",[12],71.0012
same,"Bacterial growth relative to medium, S. epidermidis, replicate 3",[12],83.073
SLLGLLDVVKSKIGQTGLL [LS-AMP-A13],"Viability of infected cells relative to aprotinin, Replicate 1",[1],0.08268
same,"Viability of infected cells relative to aprotinin, Replicate 2",[1],0.06182
same,"Viability of infected cells relative to aprotinin, Replicate 3",[1],0.0661
same,"Viability of infected cells relative to aprotinin, Replicate 1",[2],0.06606
same,"Viability of infected cells relative to aprotinin, Replicate 2",[2],0.03634
same,"Viability of infected cells relative to aprotinin, Replicate 3",[2],0.07331
same,"Viability of infected cells relative to aprotinin, Replicate 1",[3],0.1762
same,"Viability of infected cells relative to aprotinin, Replicate 2",[3],0.09602
same,"Viability of infected cells relative to aprotinin, Replicate 3",[3],0.1319
same,Insecticidal effect on larvae (in words),[4],Individual dead insects
same,"Bacterial growth relative to medium, P. aeruginosa (1117), replicate 1",[6],81.1135
same,"Bacterial growth relative to medium, P. aeruginosa (1117), replicate 2",[6],69.8921
same,"Bacterial growth relative to medium, P. aeruginosa (1117), replicate 3",[6],76.1614
same,"Bacterial growth relative to medium, P. aeruginosa (50071), replicate 1",[7],102.39
same,"Bacterial growth relative to medium, P. aeruginosa (50071), replicate 2",[7],115.883
same,"Bacterial growth relative to medium, P. aeruginosa (50071), replicate 3",[7],93.6736
same,"Bacterial growth relative to medium, M. luteus, replicate 1",[8],108.132
same,"Bacterial growth relative to medium, M. luteus, replicate 2",[8],162.387
same,"Bacterial growth relative to medium, M. luteus, replicate 3",[8],79.7227
same,"Bacterial growth relative to medium, S. aureus, replicate 1",[9],71.9833
same,"Bacterial growth relative to medium, S. aureus, replicate 2",[9],81.2949
same,"Bacterial growth relative to medium, S. aureus, replicate 3",[9],106.322
same,Antibacterial activity (in words),[9],limited activity
same,"Bacterial growth relative to medium, E. coli, replicate 1",[10],109.532
same,"Bacterial growth relative to medium, E. coli, replicate 2",[10],109.096
same,"Bacterial growth relative to medium, E. coli, replicate 3",[10],112.001
same,"Bacterial growth relative to medium, L. monocytogenes, replicate 1",[11],131.861
same,"Bacterial growth relative to medium, L. monocytogenes, replicate 2",[11],134.66
same,"Bacterial growth relative to medium, L. monocytogenes, replicate 3",[11],121.808
same,"Bacterial growth relative to medium, S. epidermidis, replicate 1",[12],109.035
same,"Bacterial growth relative to medium, S. epidermidis, replicate 2",[12],130.725
same,"Bacterial growth relative to medium, S. epidermidis, replicate 3",[12],108.734
same,Antibacterial activity (in words),[12],limited activity
LLDVVKSKIGQTGLL [LS-AMP-A16],"Viability of infected cells relative to aprotinin, Replicate 1",[1],0.002646
same,"Viability of infected cells relative to aprotinin, Replicate 2",[1],0.01088
same,"Viability of infected cells relative to aprotinin, Replicate 3",[1],0.03862
same,"Viability of infected cells relative to aprotinin, Replicate 1",[2],0.02774
same,"Viability of infected cells relative to aprotinin, Replicate 2",[2],0.02676
same,"Viability of infected cells relative to aprotinin, Replicate 3",[2],0.01877
same,"Viability of infected cells relative to aprotinin, Replicate 1",[3],0.0324
same,"Viability of infected cells relative to aprotinin, Replicate 2",[3],0.05366
same,"Viability of infected cells relative to aprotinin, Replicate 3",[3],0.1082
same,Insecticidal effect on larvae (in words),[4],Individual dead insects
same,Antibacterial activity over the panel (in words),[5],broad activity against all tested bacteria except P. aeruginosa DSM50071
same,"Bacterial growth relative to medium, P. aeruginosa (1117), replicate 1",[6],71.8168
same,"Bacterial growth relative to medium, P. aeruginosa (1117), replicate 2",[6],74.7999
same,"Bacterial growth relative to medium, P. aeruginosa (1117), replicate 3",[6],64.6393
same,"Bacterial growth relative to medium, P. aeruginosa (50071), replicate 1",[7],93.645
same,"Bacterial growth relative to medium, P. aeruginosa (50071), replicate 2",[7],105.945
same,"Bacterial growth relative to medium, P. aeruginosa (50071), replicate 3",[7],72.2488
same,Antibacterial activity (in words),[8],able to decrease the growth
same,"Bacterial growth relative to medium, M. luteus, replicate 1",[8],57.3268
same,"Bacterial growth relative to medium, M. luteus, replicate 2",[8],84.1216
same,"Bacterial growth relative to medium, M. luteus, replicate 3",[8],27.4989
same,"Bacterial growth relative to medium, S. aureus, replicate 1",[9],50.7381
same,"Bacterial growth relative to medium, S. aureus, replicate 2",[9],99.8365
same,"Bacterial growth relative to medium, S. aureus, replicate 3",[9],66.4796
same,Antibacterial activity (in words),[9],able to decrease the growth
same,Antibacterial activity (in words),"[10]; E. coli BL21(DE3), growth after 48 h",able to decrease the growth
same,"Bacterial growth relative to medium, E. coli, replicate 1",[10],67.9376
same,"Bacterial growth relative to medium, E. coli, replicate 2",[10],59.8494
same,"Bacterial growth relative to medium, E. coli, replicate 3",[10],34.0285
same,Antibacterial activity (in words),"[11]; L. monocytogenes DSM 20600, growth after 48 h",able to decrease the growth
same,"Bacterial growth relative to medium, L. monocytogenes, replicate 1",[11],81.5984
same,"Bacterial growth relative to medium, L. monocytogenes, replicate 2",[11],58.0902
same,"Bacterial growth relative to medium, L. monocytogenes, replicate 3",[11],20.8033
same,"Bacterial growth relative to medium, S. epidermidis, replicate 1",[12],52.6925
same,"Bacterial growth relative to medium, S. epidermidis, replicate 2",[12],45.3012
same,"Bacterial growth relative to medium, S. epidermidis, replicate 3",[12],72.1389
same,Antibacterial activity (in words),[12],able to decrease the growth
